# Assay results reported in paper PMC5218480 (PLoS ONE, 2017).
# Test system: MV-4-11 cells
# Assay: Gene expression microarray analysis (Affymetrix PrimeView) and GSEA
# Format: cell-based, human
# Parameters: RFU PODN (11730768_x_at) / Fold change /veh PODN (11730768_x_at) / RFU LINC00158 (11744669_a_at) / Fold change /veh LINC00158 (11744669_a_at) / RFU DUSP10 (11751237_a_at) / Fold change /veh DUSP10 (11751237_a_at) / RFU ID3 (11757404_x_at) / Fold change /veh ID3 (11757404_x_at) / RFU PLEKHG5 (11737974_s_at) / Fold change /veh PLEKHG5 (11737974_s_at) / RFU LRRC4B (11730491_at) / Fold change /veh LRRC4B (11730491_at) / RFU GIMAP4 (11747438_a_at) / Fold change /veh GIMAP4 (11747438_a_at) / RFU KRT8 (11758183_x_at) / Fold change /veh KRT8 (11758183_x_at) / RFU CNN1 (11734310_a_at) / Fold change /veh CNN1 (11734310_a_at) / RFU VPS37D (11726825_at) / Fold change /veh VPS37D (11726825_at) / RFU C10orf10 (11716522_x_at) / Fold change /veh C10orf10 (11716522_x_at) / RFU KIR2DL2 /// KIR2DL4 /// KIR2DL5A /// KIR2DL5B /// KIR2DS1 /// KIR2DS2 /// KIR2DS3 /// KIR2DS4 /// KIR3DL3 /// KIR3DL3 /// KIR3DS1 (11738374_at) / Fold change /veh KIR2DL2 /// KIR2DL4 /// KIR2DL5A /// KIR2DL5B /// KIR2DS1 /// KIR2DS2 /// KIR2DS3 /// KIR2DS4 /// KIR3DL3 /// KIR3DL3 /// KIR3DS1 (11738374_at) / RFU C1QL1 (11718748_at) / Fold change /veh C1QL1 (11718748_at) / RFU TMPRSS4 (11747572_a_at) / Fold change /veh TMPRSS4 (11747572_a_at) / RFU HAMP (11756126_x_at) / Fold change /veh HAMP (11756126_x_at) / RFU RNFT2 (11725882_a_at) / Fold change /veh RNFT2 (11725882_a_at) / RFU NR4A2 (11747474_a_at) / Fold change /veh NR4A2 (11747474_a_at) / RFU ABCC12 (11746883_a_at) / Fold change /veh ABCC12 (11746883_a_at) / RFU TMEM136 (11760407_x_at) / Fold change /veh TMEM136 (11760407_x_at) / RFU CLDN22 /// WWC2 (11732394_at) / Fold change /veh CLDN22 /// WWC2 (11732394_at) / RFU HLA-DPB1 (11760878_x_at) / Fold change /veh HLA-DPB1 (11760878_x_at) / RFU SPINT1 (11716480_a_at) / Fold change /veh SPINT1 (11716480_a_at) / RFU GAP43 (11754022_s_at) / Fold change /veh GAP43 (11754022_s_at) / RFU A4GNT (11735810_at) / Fold change /veh A4GNT (11735810_at) / RFU PRB3 (11715151_x_at) / Fold change /veh PRB3 (11715151_x_at) / RFU TUBB4B (11761932_at) / Fold change /veh TUBB4B (11761932_at) / RFU CAPN14 (11732068_a_at) / Fold change /veh CAPN14 (11732068_a_at) / RFU TMCC2 (11721928_a_at) / Fold change /veh TMCC2 (11721928_a_at) / RFU IRGQ (11745062_a_at) / Fold change /veh IRGQ (11745062_a_at) / RFU FAM174B (11720279_a_at) / Fold change /veh FAM174B (11720279_a_at) / RFU TMPRSS4 (11748680_a_at) / Fold change /veh TMPRSS4 (11748680_a_at) / RFU FAM212B (11763350_a_at) / Fold change /veh FAM212B (11763350_a_at) / RFU PLEKHG5 (11743358_a_at) / Fold change /veh PLEKHG5 (11743358_a_at) / RFU ZSCAN30 (11745921_a_at) / Fold change /veh ZSCAN30 (11745921_a_at) / RFU CMKLR1 (11741424_a_at) / Fold change /veh CMKLR1 (11741424_a_at) / RFU LOC101060620 /// MAPK8IP1 (11723275_at) / Fold change /veh LOC101060620 /// MAPK8IP1 (11723275_at) / RFU SPTSSB (11747773_x_at) / Fold change /veh SPTSSB (11747773_x_at) / RFU PRSS12 (11739890_at) / Fold change /veh PRSS12 (11739890_at) / RFU BIN1 (11741810_x_at) / Fold change /veh BIN1 (11741810_x_at) / RFU WNT11 (11732464_a_at) / Fold change /veh WNT11 (11732464_a_at) / RFU C10orf10 (11716521_a_at) / Fold change /veh C10orf10 (11716521_a_at) / RFU C5orf56 (11738089_at) / Fold change /veh C5orf56 (11738089_at) / RFU CYB561 (11721691_x_at) / Fold change /veh CYB561 (11721691_x_at) / RFU ANKRD19P (11752326_a_at) / Fold change /veh ANKRD19P (11752326_a_at) / RFU OR2T12 /// OR2T33 /// OR2T8 (11738714_s_at) / Fold change /veh OR2T12 /// OR2T33 /// OR2T8 (11738714_s_at) / RFU VCAN (11748164_a_at) / Fold change /veh VCAN (11748164_a_at) / RFU JSRP1 (11732532_at) / Fold change /veh JSRP1 (11732532_at) / RFU KRTAP10-11 (11738290_x_at) / Fold change /veh KRTAP10-11 (11738290_x_at) / RFU MYO3A (11730013_a_at) / Fold change /veh MYO3A (11730013_a_at) / RFU EBF3 (11725865_a_at) / Fold change /veh EBF3 (11725865_a_at) / RFU CAMK2N1 (11719241_x_at) / Fold change /veh CAMK2N1 (11719241_x_at) / RFU C5orf56 (11738088_a_at) / Fold change /veh C5orf56 (11738088_a_at) / RFU OLFML3 (11715873_a_at) / Fold change /veh OLFML3 (11715873_a_at) / RFU LOC100653217 /// NTM (11731650_a_at) / Fold change /veh LOC100653217 /// NTM (11731650_a_at) / RFU MAPK11 (11762145_a_at) / Fold change /veh MAPK11 (11762145_a_at) / RFU FIZ1 (11724087_x_at) / Fold change /veh FIZ1 (11724087_x_at) / RFU OASL (11726364_x_at) / Fold change /veh OASL (11726364_x_at) / RFU SOX15 (11748057_x_at) / Fold change /veh SOX15 (11748057_x_at) / RFU CD79A (11719716_a_at) / Fold change /veh CD79A (11719716_a_at) / RFU HIST1H1D (11736915_at) / Fold change /veh HIST1H1D (11736915_at) / RFU CASKIN2 (11723855_a_at) / Fold change /veh CASKIN2 (11723855_a_at) / RFU LOC730098 (11760151_x_at) / Fold change /veh LOC730098 (11760151_x_at) / RFU OR4N2 (11742367_at) / Fold change /veh OR4N2 (11742367_at) / RFU PRRT2 (11749266_a_at) / Fold change /veh PRRT2 (11749266_a_at) / RFU SNX32 (11753110_a_at) / Fold change /veh SNX32 (11753110_a_at) / RFU CDHR5 (11726645_a_at) / Fold change /veh CDHR5 (11726645_a_at) / RFU RCAN1 (11760418_a_at) / Fold change /veh RCAN1 (11760418_a_at) / RFU FAM167A (11723789_a_at) / Fold change /veh FAM167A (11723789_a_at) / RFU FAM26E (11764081_at) / Fold change /veh FAM26E (11764081_at) / RFU ISYNA1 (11749810_s_at) / Fold change /veh ISYNA1 (11749810_s_at) / RFU ACY1 (11761880_at) / Fold change /veh ACY1 (11761880_at) / RFU 11764098_at / Fold change /veh 11764098_at / RFU SAMD14 (11745864_x_at) / Fold change /veh SAMD14 (11745864_x_at) / RFU NPB (11741838_a_at) / Fold change /veh NPB (11741838_a_at) / RFU TMPRSS6 (11731388_a_at) / Fold change /veh TMPRSS6 (11731388_a_at) / RFU KRTAP10-2 (11738614_at) / Fold change /veh KRTAP10-2 (11738614_at) / RFU ARHGAP8 /// PRR5-ARHGAP8 (11727945_x_at) / Fold change /veh ARHGAP8 /// PRR5-ARHGAP8 (11727945_x_at) / RFU KRTAP5-7 /// NADSYN1 (11734609_at) / Fold change /veh KRTAP5-7 /// NADSYN1 (11734609_at) / RFU RASL12 (11751679_a_at) / Fold change /veh RASL12 (11751679_a_at) / RFU CDKN2B (11736163_a_at) / Fold change /veh CDKN2B (11736163_a_at) / RFU PRF1 (11729649_at) / Fold change /veh PRF1 (11729649_at) / RFU, ZNF638 /// ZNF638-IT1 / Fold change vs veh, ZNF638 /// ZNF638-IT1 / RFU, PANK3 / Fold change vs veh, PANK3 / RFU, SH3YL1 / Fold change vs veh, SH3YL1 / RFU, ZEB2 / Fold change vs veh, ZEB2 / RFU, NRIP1 / Fold change vs veh, NRIP1 / RFU, PTTG1IP / Fold change vs veh, PTTG1IP / RFU, CAPN2 / Fold change vs veh, CAPN2 / RFU, MED14 / Fold change vs veh, MED14 / RFU, SNORA58 / Fold change vs veh, SNORA58 / RFU, C1orf63 / Fold change vs veh, C1orf63 / RFU, LRRFIP1 / Fold change vs veh, LRRFIP1 / RFU, NDUFAF7 / Fold change vs veh, NDUFAF7 / RFU, SLC12A2 / Fold change vs veh, SLC12A2 / RFU, IBTK / Fold change vs veh, IBTK / RFU, ESF1 / Fold change vs veh, ESF1 / Fold change vs veh, TMEM50B / RFU, TAOK1 / Fold change vs veh, TAOK1 / RFU, ACBD3 / Fold change vs veh, ACBD3 / RFU, TMA16 / Fold change vs veh, TMA16 / RFU, RWDD3 / Fold change vs veh, RWDD3 / RFU, BCAT1 / Fold change vs veh, BCAT1 / RFU, EDEM3 / Fold change vs veh, EDEM3 / RFU, TMEM33 / Fold change vs veh, TMEM33 / RFU, WDR75 / Fold change vs veh, WDR75 / RFU, AHCTF1 / Fold change vs veh, AHCTF1 / RFU, TFRC / Fold change vs veh, TFRC / RFU, ZDHHC17 / Fold change vs veh, ZDHHC17 / RFU, NOM1 / Fold change vs veh, NOM1 / RFU, ARL8B / Fold change vs veh, ARL8B / RFU, ZBTB11 / Fold change vs veh, ZBTB11 / RFU, TAMM41 / Fold change vs veh, TAMM41 / RFU, KIAA1704 /// LOC100996395 / Fold change vs veh, KIAA1704 /// LOC100996395 / RFU, ING1 / Fold change vs veh, ING1 / RFU, TRMT61B / Fold change vs veh, TRMT61B / RFU, FUBP3 / Fold change vs veh, FUBP3 / RFU, TP53 / Fold change vs veh, TP53 / RFU, TNKS2 / Fold change vs veh, TNKS2 / RFU, ZFP14 / Fold change vs veh, ZFP14 / RFU, ACTR2 / Fold change vs veh, ACTR2 / RFU, PPP3R1 / Fold change vs veh, PPP3R1 / RFU, PIK3R1 / Fold change vs veh, PIK3R1 / RFU, HNRNPA1 / Fold change vs veh, HNRNPA1 / RFU, RNF170 / Fold change vs veh, RNF170 / RFU, ZNF28 / Fold change vs veh, ZNF28 / RFU, RNGTT / Fold change vs veh, RNGTT / RFU, OGT / Fold change vs veh, OGT / RFU, BRD1 / Fold change vs veh, BRD1 / RFU, MARS / Fold change vs veh, MARS / RFU, ZNF655 / Fold change vs veh, ZNF655 / RFU, FAHD1 / Fold change vs veh, FAHD1 / RFU, BDP1 / Fold change vs veh, BDP1 / RFU, LRRCC1 / Fold change vs veh, LRRCC1 / RFU, ARID1A / Fold change vs veh, ARID1A / RFU, ZNF146 / Fold change vs veh, ZNF146 / RFU, ZNF330 / Fold change vs veh, ZNF330 / RFU, GPN3 / Fold change vs veh, GPN3 / RFU, C9orf123 / Fold change vs veh, C9orf123 / RFU, N4BP2L2 / Fold change vs veh, N4BP2L2 / RFU, ARFIP1 / Fold change vs veh, ARFIP1 / RFU, FAM179B / Fold change vs veh, FAM179B / RFU, BCL10 / Fold change vs veh, BCL10 / RFU, UHRF1BP1L / Fold change vs veh, UHRF1BP1L / RFU, BET1 / Fold change vs veh, BET1 / RFU, CNOT2 / Fold change vs veh, CNOT2 / RFU, ZNF268 / Fold change vs veh, ZNF268 / Fold change vs veh, ZNF507 / RFU, DGCR2 / Fold change vs veh, DGCR2 / RFU, WDSUB1 / Fold change vs veh, WDSUB1 / Fold change vs veh, HSP90B1 /// MIR3652 / RFU, ADSS / Fold change vs veh, ADSS / RFU, GK / Fold change vs veh, GK / RFU, ZNF148 / Fold change vs veh, ZNF148 / RFU, TAF9 / Fold change vs veh, TAF9 / RFU, SLC1A5 / Fold change vs veh, SLC1A5 / RFU, SLMO2 / Fold change vs veh, SLMO2 / RFU, ABCC4 / Fold change vs veh, ABCC4 / RFU, LOC101060439 /// RAP1B / Fold change vs veh, LOC101060439 /// RAP1B / RFU, RFX7 / Fold change vs veh, RFX7 / RFU, GTPBP10 / Fold change vs veh, GTPBP10 / RFU, CNEP1R1 / Fold change vs veh, CNEP1R1 / RFU, BIVM-ERCC5 /// ERCC5 / Fold change vs veh, BIVM-ERCC5 /// ERCC5 / RFU, ILF3 / Fold change vs veh, ILF3 / RFU 11762660_at / Fold change /veh 11762660_at / RFU VCAN (11757783_s_at) / Fold change /veh VCAN (11757783_s_at) / RFU DDX43 (11728927_at) / Fold change /veh DDX43 (11728927_at) / RFU KRT8 (11758188_x_at) / Fold change /veh KRT8 (11758188_x_at) / RFU NKD1 (11759106_at) / Fold change /veh NKD1 (11759106_at) / RFU SRD5A1 (11742802_a_at) / Fold change /veh SRD5A1 (11742802_a_at) / RFU TPSAB1 /// TPSB2 (11721975_s_at) / Fold change /veh TPSAB1 /// TPSB2 (11721975_s_at) / RFU GSTM3 (11746129_a_at) / Fold change /veh GSTM3 (11746129_a_at) / RFU IL23R (11737362_x_at) / Fold change /veh IL23R (11737362_x_at) / RFU TMEM51 (11727254_a_at) / Fold change /veh TMEM51 (11727254_a_at) / RFU PIWIL2 (11732686_x_at) / Fold change /veh PIWIL2 (11732686_x_at) / RFU ORM1 (11744905_x_at) / Fold change /veh ORM1 (11744905_x_at) / RFU CCDC152 (11743942_at) / Fold change /veh CCDC152 (11743942_at) / RFU ECM1 (11717891_a_at) / Fold change /veh ECM1 (11717891_a_at) / RFU IL23R (11748794_a_at) / Fold change /veh IL23R (11748794_a_at) / RFU TNFAIP8L3 (11732012_x_at) / Fold change /veh TNFAIP8L3 (11732012_x_at) / RFU MBOAT4 (11741988_at) / Fold change /veh MBOAT4 (11741988_at) / RFU 11764193_at / Fold change /veh 11764193_at / RFU TMEM53 (11763286_at) / Fold change /veh TMEM53 (11763286_at) / RFU MAGEB2 (11727129_at) / Fold change /veh MAGEB2 (11727129_at) / RFU TMEM200A (11744735_a_at) / Fold change /veh TMEM200A (11744735_a_at) / RFU CCDC152 (11751479_a_at) / Fold change /veh CCDC152 (11751479_a_at) / RFU FAM211A (11726209_a_at) / Fold change /veh FAM211A (11726209_a_at) / RFU RGS16 (11746705_a_at) / Fold change /veh RGS16 (11746705_a_at) / RFU VCAN (11755009_s_at) / Fold change /veh VCAN (11755009_s_at) / RFU RHOB (11743442_s_at) / Fold change /veh RHOB (11743442_s_at) / RFU RGS16 (11720943_a_at) / Fold change /veh RGS16 (11720943_a_at) / RFU RGS16 (11720944_at) / Fold change /veh RGS16 (11720944_at) / RFU, VPS4B / Fold change vs veh, VPS4B / RFU, CREB1 / Fold change vs veh, CREB1 / RFU, DNAJC13 / Fold change vs veh, DNAJC13 / RFU, GNAQ / Fold change vs veh, GNAQ / RFU, CDK5R1 / Fold change vs veh, CDK5R1 / RFU, ZRANB3 / Fold change vs veh, ZRANB3 / RFU, CUL4A / Fold change vs veh, CUL4A / RFU, CCNY / Fold change vs veh, CCNY / RFU, UFL1 / Fold change vs veh, UFL1 / RFU, COG3 / Fold change vs veh, COG3 / RFU, DIAPH2 / Fold change vs veh, DIAPH2 / RFU, SKA2 / Fold change vs veh, SKA2 / RFU, AFF3 / Fold change vs veh, AFF3 / RFU, LMF1 / Fold change vs veh, LMF1 / RFU, IPO11 / Fold change vs veh, IPO11 / RFU, DFFB / Fold change vs veh, DFFB / RFU, FOXP1 / Fold change vs veh, FOXP1 / RFU, CARD8 / Fold change vs veh, CARD8 / RFU, STRN3 / Fold change vs veh, STRN3 / RFU, ADK / Fold change vs veh, ADK / RFU, RASSF2 / Fold change vs veh, RASSF2 / RFU, WIPF1 / Fold change vs veh, WIPF1 / RFU, LARP1B / Fold change vs veh, LARP1B / RFU, RASA1 / Fold change vs veh, RASA1 / RFU, RB1 / Fold change vs veh, RB1 / RFU, PPFIA1 / Fold change vs veh, PPFIA1 / RFU, MAT2A / Fold change vs veh, MAT2A / RFU, CCT5 / Fold change vs veh, CCT5 / RFU, WDR92 / Fold change vs veh, WDR92 / RFU, CUX1 / Fold change vs veh, CUX1 / RFU, TTC7A / Fold change vs veh, TTC7A / RFU, TMEM135 / Fold change vs veh, TMEM135 / RFU, DEPTOR / Fold change vs veh, DEPTOR / RFU, CPM / Fold change vs veh, CPM / RFU, DNAJB6 / Fold change vs veh, DNAJB6 / RFU, CACNA2D3 / Fold change vs veh, CACNA2D3 / RFU, DTX4 / Fold change vs veh, DTX4 / RFU, TFCP2 / Fold change vs veh, TFCP2 / RFU, GMCL1 /// GMCL1P1 / Fold change vs veh, GMCL1 /// GMCL1P1 / RFU, AEBP2 / Fold change vs veh, AEBP2 / RFU, SNHG1 /// SNORD22 /// SNORD25 /// SNORD26 /// SNORD27 /// SNORD28 /// SNORD29 /// SNORD31 / Fold change vs veh, SNHG1 /// SNORD22 /// SNORD25 /// SNORD26 /// SNORD27 /// SNORD28 /// SNORD29 /// SNORD31 / Fold change (Aza/veh), C12orf56 (ProbeSet 11735607_a_at) / Fold change (ACY-1035/veh), C12orf56 (ProbeSet 11735607_a_at) / Fold change (Aza/veh), FGFR1OP (ProbeSet 11751329_s_at) / Fold change (ACY-1035/veh), FGFR1OP (ProbeSet 11751329_s_at) / Fold change (Aza/veh), VPS36 (ProbeSet 11739960_a_at) / Fold change (ACY-1035/veh), VPS36 (ProbeSet 11739960_a_at) / RFU SYPL1 (11715823_x_at) / Fold change /veh SYPL1 (11715823_x_at) / RFU IGFBP7 (11715501_s_at) / Fold change /veh IGFBP7 (11715501_s_at) / RFU REEP3 (11722064_at) / Fold change /veh REEP3 (11722064_at) / RFU IGLL1 (11728026_x_at) / Fold change /veh IGLL1 (11728026_x_at): dose or concentration left out as unconfirmed
# Conditions: ProbeSet 11727545_at; LIST B
smiles,measurement,value
Nc1ccc(-c2cccs2)cc1NC(=O)c1ccc2c(c1)cc(C1CC1)n2CCN1CCOCC1 [ACY-1035],"Fold change vs veh, PANK3",0.83
